Results as given in paper PMC6110523 (Biochemistry, 2018).

Target: HER2 (Homo sapiens, UniProt P04626)
Assay: DiscoverX scanELECT competition binding at […]

Sequence of HER2 (P04626 720-987 limits assumed): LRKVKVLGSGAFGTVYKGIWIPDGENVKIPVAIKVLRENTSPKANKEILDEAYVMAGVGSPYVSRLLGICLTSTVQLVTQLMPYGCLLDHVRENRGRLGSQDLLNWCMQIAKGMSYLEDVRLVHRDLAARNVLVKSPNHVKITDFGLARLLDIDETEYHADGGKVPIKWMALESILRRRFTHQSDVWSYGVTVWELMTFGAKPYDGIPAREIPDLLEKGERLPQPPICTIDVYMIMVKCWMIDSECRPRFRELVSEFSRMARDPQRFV

- % control at 1 μM: 0
SMILES: CS(=O)(=O)CCNCc1ccc(-c2ccc3ncnc(Nc4ccc(OCc5cccc(F)c5)c(Cl)c4)c3c2)o1 [lapatinib]
